Source: patent publication US8247211B2, “Glycopeptide antibiotics” (American Cyanamid Company, priority 2001, dated 2012)
Converted amounts (≈) assume the structure as drawn.

Tests used:
Assay in all cases: In vitro antibacterial evaluation: minimum inhibitory concentration (MIC), broth dilution method
Format in all cases: cell-based
[1] = system: Enterococcus sp.
In short: (§1)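 NCCLS M7-A2 broth dilution with Mueller-Hinton II, testing 64-0.06 μg/mL antibiotic against 5×10^5 CFU/mL inocula. Test strains include recent methicillin-, penicillin- or vancomycin-resistant clinical isolates. MIC is the lowest concentration preventing growth.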

[2] = system: Staphylococcus sp.; settings: broth dilution, 18 hours at 35° C.
In short: as §1

[3] = system: Escherichia coli
In short: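 First, organisms are seeded at 5×10^5 CFU/mL into Muller-Hinton II […]. Next, antibiotic is applied across 64-0.06 μg/mL by broth dilution (NCCLS M7-A2). Finally, the lowest inhibitory concentration is recorded as MIC.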

[4] = system: Streptococcus sp.
In short: as §1

[5] = broth dilution, inoculum 5×10^5 CFU/mL, 18 hours at 35° C.

CC(c1ccccc1)C1NC(=O)CNC(=O)C(CO)NC(=O)C(C(O)C2CNC(=N)N2C2OC(CO)C(O)C(O)C2O)NC(=O)C(C(O)C2CNC(=N)N2)NC(=O)C(Cc2ccc(OC3OC(CO)C(OC4OC5COC(c6ccc(-c7ccsc7)cc6)OC5C(O)C4O)C(O)C3O)cc2)NC1=O (stereo not drawn) [Example 164, Cyclo[glycyl-β-methylphenylalanyl-O-[4-O-[4,6-O-[4-(3-thienyl)benzylidene]hexopyranosyl]-hexopyranosyl]tyrosyl-3-(2-iminoimidazolidin-4-yl)seryl-3-(3-hexopyranosyl-2-iminoimidazolidin-4-yl)serylseryl]]
MIC Enterococcus avium (GC 4558) [1, 5]: 8 µg/mL (≈ 5.46 µM) | MIC Enterococcus faecalis (ATCC 29212) [1, 5]: 8 µg/mL (≈ 5.46 µM) | MIC Enterococcus faecalis (GC 2242) [1, 5]: 4 µg/mL (≈ 2.73 µM) | MIC Enterococcus faecalis (GC 2691) [1, 5]: 8 µg/mL (≈ 5.46 µM) | MIC Enterococcus faecalis (GC 3059) [1, 5]: 8 µg/mL (≈ 5.46 µM) | MIC Enterococcus faecalis (GC 4552) [1, 5]: 8 µg/mL (≈ 5.46 µM) | MIC Enterococcus faecalis (GC 4553) [1, 5]: 8 µg/mL (≈ 5.46 µM) | MIC Enterococcus faecalis (GC 4554) [1, 5]: 16 µg/mL (≈ 10.9 µM) | MIC Enterococcus faecalis (GC 6189) [1, 5]: 4 µg/mL (≈ 2.73 µM) | MIC Enterococcus faecium (GC 2243) [1, 5]: 8 µg/mL (≈ 5.46 µM) | MIC Enterococcus faecium (GC 4556) [1, 5]: 8 µg/mL (≈ 5.46 µM) | MIC Enterococcus faecium (GC 4557) [1, 5]: 4 µg/mL (≈ 2.73 µM) | MIC Enterococcus faecalis (ATCC 29212) ([1]; strain ATCC 29212): 8 µg/mL (≈ 5.46 µM) | MIC Enterococcus faecalis (GC 2242) ([1]; strain GC 2242): 4 µg/mL (≈ 2.73 µM) | MIC Enterococcus faecium (GC 2243) ([1]; strain GC 2243): 8 µg/mL (≈ 5.46 µM) | MIC Enterococcus faecalis (GC 2691) ([1]; strain GC 2691): 8 µg/mL (≈ 5.46 µM) | MIC Enterococcus faecalis (GC 3059) ([1]; strain GC 3059): 8 µg/mL (≈ 5.46 µM) | MIC Enterococcus faecalis (GC 4552) ([1]; strain GC 4552): 8 µg/mL (≈ 5.46 µM) | MIC Enterococcus faecalis (GC 4553) ([1]; strain GC 4553): 8 µg/mL (≈ 5.46 µM) | MIC Enterococcus faecalis (GC 4554) ([1]; strain GC 4554): 16 µg/mL (≈ 10.9 µM) | MIC Enterococcus faecium (GC 4556) ([1]; strain GC 4556): 8 µg/mL (≈ 5.46 µM) | MIC Enterococcus faecium (GC 4557) ([1]; strain GC 4557): 4 µg/mL (≈ 2.73 µM) | MIC Enterococcus avium (GC 4558) ([1]; strain GC 4558): 8 µg/mL (≈ 5.46 µM) | MIC Enterococcus faecalis (GC 6189) ([1]; strain GC 6189): 4 µg/mL (≈ 2.73 µM) | MIC Coagulase Negative Staphylococcus (GC 4547) ([2]; 5×10^5 CFU/mL): 4 µg/mL (≈ 2.73 µM) | MIC Coagulase Negative Staphylococcus (GC 4548) ([2]; 5×10^5 CFU/mL): 1 µg/mL (≈ 0.682 µM) | MIC Coagulase Negative Staphylococcus (GC 4549) ([2]; 5×10^5 CFU/mL): 0.5 µg/mL (≈ 0.341 µM) | MIC Coagulase Negative Staphylococcus (GC 4551) ([2]; 5×10^5 CFU/mL): 4 µg/mL (≈ 2.73 µM) | MIC Coagulase Negative Staphylococcus (GC 6257) ([2]; 5×10^5 CFU/mL): 1 µg/mL (≈ 0.682 µM) | MIC Staphylococcus aureus (ATCC 29213) ([2]; 5×10^5 CFU/mL): 8 µg/mL (≈ 5.46 µM) | MIC Staphylococcus aureus (GC 1131) ([2]; 5×10^5 CFU/mL): 4 µg/mL (≈ 2.73 µM) | MIC Staphylococcus aureus (GC 3051) ([2]; 5×10^5 CFU/mL): 16 µg/mL (≈ 10.9 µM) | MIC Staphylococcus aureus (GC 3053) ([2]; 5×10^5 CFU/mL): 8 µg/mL (≈ 5.46 µM) | MIC Staphylococcus aureus (GC 4541) ([2]; 5×10^5 CFU/mL): 8 µg/mL (≈ 5.46 µM) | MIC Staphylococcus aureus (GC 4542) ([2]; 5×10^5 CFU/mL): 16 µg/mL (≈ 10.9 µM) | MIC Staphylococcus aureus (GC 4544) ([2]; 5×10^5 CFU/mL): 8 µg/mL (≈ 5.46 µM) | MIC Staphylococcus aureus (GC 4545) ([2]; 5×10^5 CFU/mL): 4 µg/mL (≈ 2.73 µM) | MIC Staphylococcus aureus-SMITH (GC 4543) ([2]; 5×10^5 CFU/mL): 4 µg/mL (≈ 2.73 µM) | MIC Staphylococcus haemolyticus (GC 4546) ([2]; 5×10^5 CFU/mL): 4 µg/mL (≈ 2.73 µM) | MIC Staphylococcus aureus (ATCC 29213) ([2]; strain ATCC 29213): 8 µg/mL (≈ 5.46 µM) | MIC Staphylococcus aureus (GC 1131) ([2]; strain GC 1131): 4 µg/mL (≈ 2.73 µM) | MIC Staphylococcus aureus (GC 3051) ([2]; strain GC 3051): 16 µg/mL (≈ 10.9 µM) | MIC Staphylococcus aureus (GC 3053) ([2]; strain GC 3053): 8 µg/mL (≈ 5.46 µM) | MIC Staphylococcus aureus (GC 4541) ([2]; strain GC 4541): 8 µg/mL (≈ 5.46 µM) | MIC Staphylococcus aureus (GC 4542) ([2]; strain GC 4542): 16 µg/mL (≈ 10.9 µM) | MIC Staphylococcus aureus-SMITH (GC 4543) ([2]; strain GC 4543): 4 µg/mL (≈ 2.73 µM) | MIC Staphylococcus aureus (GC 4544) ([2]; strain GC 4544): 8 µg/mL (≈ 5.46 µM) | MIC Staphylococcus aureus (GC 4545) ([2]; strain GC 4545): 4 µg/mL (≈ 2.73 µM) | MIC Staphylococcus haemolyticus (GC 4546) ([2]; strain GC 4546): 4 µg/mL (≈ 2.73 µM) | MIC Coagulase Negative Staphylococcus (GC 4547) ([2]; strain GC 4547): 4 µg/mL (≈ 2.73 µM) | MIC Coagulase Negative Staphylococcus (GC 4548) ([2]; strain GC 4548): 1 µg/mL (≈ 0.682 µM) | MIC Coagulase Negative Staphylococcus (GC 4549) ([2]; strain GC 4549): 0.5 µg/mL (≈ 0.341 µM) | MIC Coagulase Negative Staphylococcus (GC 4551) ([2]; strain GC 4551): 4 µg/mL (≈ 2.73 µM) | MIC Coagulase Negative Staphylococcus (GC 6257) ([2]; strain GC 6257): 1 µg/mL (≈ 0.682 µM) | MIC Escherichia coli (ATCC 25922) ([3]; strain ATCC 25922): >64 µg/mL | MIC Escherichia coli (GC 4559) ([3]; strain GC 4559): 64 µg/mL (≈ 43.7 µM) | MIC Escherichi coli (GC 4560) ([3]; strain GC 4560): 4 µg/mL (≈ 2.73 µM) | MIC Streptococcus agalactiae (GC 4564) [4, 5]: 0.12 µg/mL (≈ 0.0819 µM) | MIC Streptococcus pneumoniae (ATCC 6301) [4, 5]: <0.06 µg/mL | MIC Streptococcus pneumoniae (GC 1894) [4, 5]: <0.06 µg/mL | MIC Streptococcus pneumoniae (GC 4565) [4, 5]: <0.06 µg/mL | MIC Streptococcus pyogenes (GC 4563) [4, 5]: 0.12 µg/mL (≈ 0.0819 µM) | MIC Streptococcus pneumoniae (ATCC 6301) ([4]; strain ATCC 6301): <0.06 µg/mL | MIC Streptococcus pneumoniae (GC 1894) ([4]; strain GC 1894): <0.06 µg/mL | MIC Streptococcus pyogenes (GC 4563) ([4]; strain GC 4563): 0.12 µg/mL (≈ 0.0819 µM) | MIC Streptococcus agalactiae (GC 4564) ([4]; strain GC 4564): 0.12 µg/mL (≈ 0.0819 µM) | MIC Streptococcus pneumoniae (GC 4565) ([4]; strain GC 4565): <0.06 µg/mL
